Source: patent publication US7932291B2, “Use of L-carnitine and its alkanoyl derivatives as osmotic agents in solutions for medical use” (Sigma-Tau Industrie Farmaceutiche Riunite S.p.A., priority 1999, dated 2011)

System: male Sprague-Dawley rats
Test: In-vivo peritoneal dialysis in rats: fluid volume recovered from the peritoneum
Set-up: species or system rat
Description: The peritoneal dialysis experiment was conducted in male Sprague-Dawley rats weighing 500-600 g (Charles River) maintained on a standard diet with water ad libitum. The animals were anaesthetized with an intraperitoneal injection of inactin (100 mg/kg) and were placed on an operating table at controlled temperature. The animals were submitted to a tracheostomy to cannulate the left jugular vein with a PESO medical silicone tube. Thirty minutes after administration of the anaesthetic the animals were infused with a saline solution at a rate of 2.3 ml/h throughout the period of the experiment. The dialysis solution (15 ml), after preheating to 37° C., was inoculated into the peritoneal cavity with a 15 teflon needle-cannula 1 h after administration of the anaesthetic. The amount of fluid injected was determined by weighing the syringe before and after injection of the fluid, using an electronic scale. At the end of each analysis period (2, 4 and 6 h), incisions were made in the rats' abdomens with an acusector and all the fluid present in the peritoneum was aspirated with a 1 ml syringe. After removing the surface fluid, the intestines were carefully shifted from the abdominal cavity to collect the residual fluid remaining on the dorsal wall. The fluid recovered was placed in a beaker and weighed. […]

SMILES: C[N+](C)(C)C[C@H](O)CC(=O)[O-] [Carnitine, L-carnitine]
- Quality as osmotic agent compared with glucose (rat peritoneal dialysis, 1.5-4.25%): at least as good as glucose
- Time by which the increase in intraperitoneal fluid volume is completed / peak activity reached (rat, all concentrations used (1.5, 2.5, 4.25%)): ≤ 2 h
